Results on 27 compounds are retold here after patent publication US8791123B2, “Substituted pyrazolo[1,5-a]pyrimidine compounds as Trk kinase inhibitors” (Array Biopharma, Inc., priority 2009, dated 2014).

Structures are written as SMILES. Like-named read-outs stand apart in the source and are kept apart here.

For test [1], the target named is TrkA (histidine-tagged recombinant human TrkA, cytoplasmic domain) (Homo sapiens (Human), UniProt P04629). The experiment in a line: TrkA ELISA Assay. Format: biochemical. The conditions noted are these: Table 1; ELISA, 500 μM ATP; read-out: TrkA Enzyme IC50. The procedure, abridged:
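His-tagged human TrkA cytoplasmic domain phosphorylated poly(Glu,Ala,Tyr 6:3:1) coated at 0.025 mg/mL, with inhibitors present. Phosphotyrosine was detected with HRP-conjugated PY20 antibody (0.2 μg/mL) and TMB, read as absorbance at 450 nm after phosphoric acid stop.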

A further test has as its target Human Jak2 kinase domain (Homo sapiens (Human), UniProt O60674). The test is described as follows: Jak2 Inhibition Assay (Omnia kinase assay). The format is biochemical. The conditions noted are these: read-out: Jak2 Enzyme IC50.
The mark [2] stands for this setting: Table 1, 500 μM ATP, >1000 nM when >50% inhibition not observed at 1000 nM.

Sequence of TrkA (histidine-tagged recombinant human TrkA, cytoplasmic domain) (P04629 440-796): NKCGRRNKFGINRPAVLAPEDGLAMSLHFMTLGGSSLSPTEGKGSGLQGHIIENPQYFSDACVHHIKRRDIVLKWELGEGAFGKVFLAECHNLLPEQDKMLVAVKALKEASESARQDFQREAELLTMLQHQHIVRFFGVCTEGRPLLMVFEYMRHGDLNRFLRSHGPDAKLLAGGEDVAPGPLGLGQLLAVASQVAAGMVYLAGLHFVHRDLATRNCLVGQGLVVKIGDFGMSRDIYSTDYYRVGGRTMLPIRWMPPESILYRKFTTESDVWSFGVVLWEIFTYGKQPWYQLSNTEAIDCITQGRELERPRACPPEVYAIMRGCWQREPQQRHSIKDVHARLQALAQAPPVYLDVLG
Sequence of Human Jak2 kinase domain (O60674 808-1132): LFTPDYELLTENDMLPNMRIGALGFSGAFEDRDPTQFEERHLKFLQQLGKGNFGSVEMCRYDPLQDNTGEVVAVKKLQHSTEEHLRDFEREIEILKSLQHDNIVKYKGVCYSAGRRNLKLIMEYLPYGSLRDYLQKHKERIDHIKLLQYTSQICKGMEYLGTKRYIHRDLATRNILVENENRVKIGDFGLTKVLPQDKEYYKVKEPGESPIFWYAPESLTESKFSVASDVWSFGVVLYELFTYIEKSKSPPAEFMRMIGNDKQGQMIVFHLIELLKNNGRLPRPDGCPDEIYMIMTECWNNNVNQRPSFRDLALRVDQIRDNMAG

As for `C[C@H](O)CNC(=O)c1cnn2ccc(N3CCC[C@@H]3c3cncc(F)c3)nc12` [Example 109, 5-((R)-2-(5-fluoropyridin-3-yl)pyrrolidin-1-yl)-N-((S)-2-hydroxypropyl)pyrazolo[1,5-a]pyrimidine-3-carboxamide], the results for the IC50 (in test [1]; on Human Jak2 kinase domain (setting [2])) were 0.0367 µM and greater than 1 µM, respectively.
Consider `Cc1ncc(F)cc1[C@H]1CCCN1c1ccn2ncc(C(=O)NC3(CO)CC3)c2n1` [Example 193, (R)-5-(2-(5-fluoro-2-methylpyridin-3-yl)pyrrolidin-1-yl)-N-(1-(hydroxymethyl)cyclopropyl)pyrazolo[1,5-a]pyrimidine-3-carboxamide], for which the IC50 is 0.0156 µM in test [1] and greater than 1 µM on Human Jak2 kinase domain (setting [2]).
For `CNC(=O)c1cnn2ccc(N3CCC[C@@H]3c3cc(F)cnc3OC)nc12` [Example 153, (R)-5-(2-(5-fluoro-2-methoxypyridin-3-yl)pyrrolidin-1-yl)-N-methylpyrazolo[1,5-a]pyrimidine-3-carboxamide] the same measures were 0.0021 µM and greater than 1 µM.
For `Cc1ncc(F)cc1[C@H]1CCCN1c1ccn2ncc(C(=O)NC(C)C)c2n1` [Example 184, (R)-5-(2-(5-fluoro-2-methylpyridin-3-yl)pyrrolidin-1-yl)-N-isopropylpyrazolo[1,5-a]pyrimidine-3-carboxamide] the same measures were 0.0074 µM and greater than 1 µM.
On the same counts, the results for `C[C@H](NC(=O)c1cnn2ccc(N3CCC[C@@H]3c3cncc(F)c3)nc12)C(F)(F)F` [Example 130, 5-((R)-2-(5-fluoropyridin-3-yl)pyrrolidin-1-yl)-N-((S)-1,1,1-trifluoropropan-2-yl)pyrazolo[1,5-a]pyrimidine-3-carboxamide] are 0.0017 µM and greater than 1 µM.
For the compound `CC(NC(=O)c1cnn2ccc(N3CCCC3c3cncc(F)c3)nc12)C1CC1` [Example 113, N-(1-cyclopropylethyl)-5-((R)-2-(5-fluoropyridin-3-yl)pyrrolidin-1-yl)pyrazolo[1,5-a]pyrimidine-3-carboxamide], the IC50 in test [1] is 0.0032 µM; at Human Jak2 kinase domain (setting [2]), greater than 1 µM.
As to `C[C@H](NC(=O)c1cnn2ccc(N3[C@@H](c4cncc(F)c4)CC[C@@]3(C)CO)nc12)C(F)(F)F` [Example 220, 5-((2S,5R)-5-(5-fluoropyridin-3-yl)-2-(hydroxymethyl)-2-methylpyrrolidin-1-yl)-N—((S)-1,1,1-trifluoropropan-2-yl)pyrazolo[1,5-a]pyrimidine-3-carboxamide], the IC50 was 0.11 µM in test [1] and greater than 1 µM on Human Jak2 kinase domain.
Take `Cn1cc(F)cc([C@H]2CCCN2c2ccn3ncc(C(=O)Nc4cccnc4)c3n2)c1=O` [Example 231, (R)-5-(2-(5-fluoro-1-methyl-2-oxo-1,2-dihydropyridin-3-yl)pyrrolidin-1-yl)-N-(pyridin-3-yl)pyrazolo[1,5-a]pyrimidine-3-carboxamide]: the IC50 in test [1] is 0.0087 µM; on Human Jak2 kinase domain (setting [2]) it was greater than 1 µM.
In the case of `O=C(c1cnn2ccc(N3CCC[C@@H]3c3cncc(F)c3)nc12)N1CC(O)C1` [Example 108, (R)-(5-(2-(5-fluoropyridin-3-yl)pyrrolidin-1-yl)pyrazolo[1,5-a]pyrimidin-3-yl)(3-hydroxyazetidin-1-yl)methanone], the results for the IC50 (in test [1]; at Human Jak2 kinase domain (setting [2])) were 1.19 µM and greater than 1 µM, respectively.
With `NC(=O)c1cnn2ccc(N3CCC[C@@H]3c3cncc(F)c3)nc12` [Example 117, (R)-5-(2-(5-fluoropyridin-3-yl)pyrrolidin-1-yl)pyrazolo[1,5-a]pyrimidine-3-carboxamide], the IC50 in test [1] is 0.045 µM; at Human Jak2 kinase domain (setting [2]), greater than 1 µM.
Regarding `O=C(N[C@H]1CC[C@H](O)CC1)c1cnn2ccc(N3CCC[C@@H]3c3cccc(F)c3)nc12` [Example 35, 5-((R)-2-(3-fluorophenyl)pyrrolidin-1-yl)-N-((trans)-4-hydroxycyclohexyl)pyrazolo[1,5-a]pyrimidine-3-carboxamide], the IC50 worked out at 0.0012 µM in test [1] and 0.278 µM on Human Jak2 kinase domain (setting [2]).
On to `O=C(c1cnn2ccc(N3CCC[C@@H]3c3cc(F)ccc3F)nc12)N1CC[C@@H](O)C1` [Example 19, (5-((R)-2-(2,5-difluorophenyl)pyrrolidin-1-yl)pyrazolo[1,5-a]pyrimidin-3-yl)((R)-3-hydroxypyrrolidin-1-yl)methanone], for which the IC50 was 0.0742 µM in test [1] and greater than 1 µM at Human Jak2 kinase domain (setting [2]).
On to `COc1ncc(F)cc1[C@H]1CCCN1c1ccn2ncc(C(=O)NC[C@H](O)CO)c2n1` [Example 143, N—((S)-2,3-dihydroxypropyl)-5-((R)-2-(5-fluoro-2-methoxypyridin-3-yl)pyrrolidin-1-yl)pyrazolo[1,5-a]pyrimidine-3-carboxamide], for which the IC50 is 0.008 µM in test [1] and greater than 1 µM at Human Jak2 kinase domain (setting [2]).
For the compound `COc1ccc(F)cc1[C@H]1CCCN1c1ccn2ncc(C(=O)NC[C@@H](O)CO)c2n1` [Example 56, N—((R)-2,3-dihydroxypropyl)-5-((R)-2-(5-fluoro-2-methoxyphenyl)pyrrolidin-1-yl)pyrazolo[1,5-a]pyrimidine-3-carboxamide], the concentration for half-maximal inhibition (IC50) in test [1] was 0.0024 µM; on Human Jak2 kinase domain it was greater than 1 µM.
Regarding `COCCOc1ccc(F)cc1[C@H]1CCCN1c1ccn2ncc(C(N)=O)c2n1` [Example 89, (R)-5-(2-(5-fluoro-2-(2-methoxyethoxy)phenyl)pyrrolidin-1-yl)pyrazolo[1,5-a]pyrimidine-3-carboxamide], the IC50 is 0.0036 µM in test [1] and greater than 1 µM on Human Jak2 kinase domain (setting [2]).
Turning to `Cc1ncc(F)cc1[C@H]1CCCN1c1ccn2ncc(C(=O)N[C@@H]3CCC[C@H]3O)c2n1` [Example 197, 5-((R)-2-(5-fluoro-2-methylpyridin-3-yl)pyrrolidin-1-yl)-N-((1R,2R)-2-hydroxycyclopentyl)pyrazolo[1,5-a]pyrimidine-3-carboxamide], the IC50 is 0.0048 µM in test [1] and greater than 1 µM on Human Jak2 kinase domain (setting [2]).
As to `O=C(NC1CC1)c1cnn2ccc(N3CCC[C@@H]3c3cccc(F)c3)nc12` [Example 37, (R)—N-cyclopropyl-5-(2-(3-fluorophenyl)pyrrolidin-1-yl)pyrazolo[1,5-a]pyrimidine-3-carboxamide], the IC50 in test [1] is 0.00165 µM; on Human Jak2 kinase domain (setting [2]), greater than 1 µM.
On to `O=C(c1cnn2ccc(N3CCC[C@@H]3c3cncc(F)c3)nc12)N1CCCCC1` [Example 137, (R)-(5-(2-(5-fluoropyridin-3-yl)pyrrolidin-1-yl)pyrazolo[1,5-a]pyrimidin-3-yl)(piperidin-1-yl)methanone], for which the IC50 was 0.794 µM in test [1] and greater than 1 µM on Human Jak2 kinase domain (setting [2]).
Consider `COc1ccc(F)cc1[C@H]1CCCN1c1ccn2ncc(C(=O)NC[C@H](O)CO)c2n1` [Example 55, N—((S)-2,3-dihydroxypropyl)-5-((R)-2-(5-fluoro-2-methoxyphenyl)pyrrolidin-1-yl)pyrazolo[1,5-a]pyrimidine-3-carboxamide], for which the IC50 in test [1] was 0.001 µM; on Human Jak2 kinase domain, greater than 1 µM.
Consider `O=C(NC1CCC1)c1cnn2ccc(N3CCC[C@@H]3c3cc(F)ccc3F)nc12` [Example 14, (R)—N-cyclobutyl-5-(2-(2,5-difluorophenyl)pyrrolidin-1-yl)pyrazolo[1,5-a]pyrimidine-3-carboxamide], for which the IC50 is 0.00055 µM in test [1] and 0.47 µM on Human Jak2 kinase domain (setting [2]).
In the case of `CC(C)[C@@H](CO)NC(=O)c1cnn2ccc(N3CCC[C@@H]3c3cc(F)ccc3F)nc12` [Example 179, 5-((R)-2-(2,5-difluorophenyl)pyrrolidin-1-yl)-N-((S)-1-hydroxy-3-methylbutan-2-yl)pyrazolo[1,5-a]pyrimidine-3-carboxamide], the IC50 is 0.0085 µM in test [1] and greater than 1 µM on Human Jak2 kinase domain (setting [2]).
Consider `COc1ncc(F)cc1[C@H]1CCCN1c1ccn2ncc(C(=O)NC(C)(C)C)c2n1` [Example 80, (R)—N-tert-butyl-5-(2-(5-fluoro-2-methoxypyridin-3-yl)pyrrolidin-1-yl)pyrazolo[1,5-a]pyrimidine-3-carboxamide], for which the concentration for half-maximal inhibition (IC50) in test [1] came out at 0.0018 µM; at Human Jak2 kinase domain, 0.869 µM.
For `O=C(N[C@H]1CCC[C@H]1O)c1cnn2ccc(N3CCC[C@@H]3c3cncc(F)c3)nc12` [Example 104, 5-((R)-2-(5-fluoropyridin-3-yl)pyrrolidin-1-yl)-N-((1S,2R)-2-hydroxycyclopentyl)pyrazolo[1,5-a]pyrimidine-3-carboxamide], the IC50 in test [1] is 0.0831 µM; at Human Jak2 kinase domain (setting [2]), greater than 1 µM.
Turning to `COc1ncc(F)cc1[C@H]1CCCN1c1ccn2ncc(C(=O)N3CC(C)(O)C3)c2n1` [Example 147, (R)-(5-(2-(5-fluoro-2-methoxypyridin-3-yl)pyrrolidin-1-yl)pyrazolo[1,5-a]pyrimidin-3-yl)(3-hydroxy-3-methylazetidin-1-yl)methanone], the IC50 in test [1] is 0.0308 µM; at Human Jak2 kinase domain (setting [2]) it was greater than 1 µM.
Consider `COc1ncc(F)cc1[C@H]1CCCN1c1ccn2ncc(C(=O)NC3CC3)c2n1` [Example 79, (R)—N-cyclopropyl-5-(2-(5-fluoro-2-methoxypyridin-3-yl)pyrrolidin-1-yl)pyrazolo[1,5-a]pyrimidine-3-carboxamide], for which the IC50 in test [1] is 0.0013 µM; on Human Jak2 kinase domain, 0.698 µM.
For `O=C(N[C@H]1CC[C@H](O)C1)c1cnn2ccc(N3CCC[C@@H]3c3cc(F)ccc3F)nc12` [Example 169, 5-((R)-2-(2,5-difluorophenyl)pyrrolidin-1-yl)-N-((1S,3S)-3-hydroxycyclopentyl)pyrazolo[1,5-a]pyrimidine-3-carboxamide], the IC50 in test [1] came to 0.0009 µM; on Human Jak2 kinase domain (setting [2]), 0.759 µM.
Consider `NCCCNC(=O)c1cnn2ccc(N3CCC[C@@H]3c3cc(F)c[nH]c3=O)nc12` [Example 142, (R)—N-(3-aminopropyl)-5-(2-(5-fluoro-2-oxo-1,2-dihydropyridin-3-yl)pyrrolidin-1-yl)pyrazolo[1,5-a]pyrimidine-3-carboxamide], for which the half-inhibitory concentration (IC50) is 0.0127 µM in test [1] and greater than 1 µM on Human Jak2 kinase domain (setting [2]).
